Reference: patent US8673942B2, “Fused ring compounds and use thereof” (Takeda Pharmaceutical Company Limited, priority 2008, dated 2014)

Row | Structure (SMILES) | melting point [°C]
1 | CNC(=O)CC1CN=C(c2cc3cc(Oc4ccc(S(C)(=O)=O)nc4)cc(OC(C)COC)c3[nH]2)S1 (stereo not drawn) [Example 87, 2-{2-[7-(2-Methoxy-1-methylethoxy)-5-{[6-(methylsulfonyl)pyridin-3-yl]oxy}-1H-indol-2-yl]-4,5-dihydro-1,3-thiazol-5-yl}-N-methylacetamide] | 107 to 109
2 | COCC(C)Oc1cc(Oc2ccc(S(C)(=O)=O)cc2)cc2cc(C3=NCC(C(OC)OC)S3)[nH]c12 (stereo not drawn) [Example 88, 2-[5-(Dimethoxymethyl)-4,5-dihydro-1,3-thiazol-2-yl]-7-(2-methoxy-1-methylethoxy)-5-[4-(methylsulfonyl)phenoxy]-1H-indole] | 109 to 112
3 | COCCOc1c(F)c(Oc2ccc(S(C)(=O)=O)nc2)cc2cc(C3=NCC(CCO)S3)[nH]c12 (stereo not drawn) [Example 90, 2-{2-[6-Fluoro-7-(2-methoxyethoxy)-5-{[6-(methylsulfonyl)pyridin-3-yl]oxy}-1H-indol-2-yl]-4,5-dihydro-1,3-thiazol-5-yl}ethanol] | 160 to 161
4 | CNC(=O)CC1CN=C(c2cc3cc(Oc4ccc(S(C)(=O)=O)nc4)c(F)c(OCCOC)c3[nH]2)S1 (stereo not drawn) [Example 92, 2-{2-[6-Fluoro-7-(2-methoxyethoxy)-5-{[6-(methylsulfonyl)pyridin-3-yl]oxy}-1H-indol-2-yl]-4,5-dihydro-1,3-thiazol-5-yl}-N-methylacetamide] | 151 to 152
5 | COCCOc1c(F)c(Oc2ccc(S(C)(=O)=O)nc2)cc2cc(C3=NCC(CC(N)=O)S3)[nH]c12 (stereo not drawn) [Example 93, 2-{2-[6-Fluoro-7-(2-methoxyethoxy)-5-{[6-(methylsulfonyl)pyridin-3-yl]oxy}-1H-indol-2-yl]-4,5-dihydro-1,3-thiazol-5-yl}acetamide] | 143 to 144
6 | CCOc1cc(Oc2ccc(S(C)(=O)=O)nc2)cc2cc(C3=NCC(CCO)S3)[nH]c12 (stereo not drawn) [Example 95, 2-[2-(7-Ethoxy-5-{[6-(methylsulfonyl)pyridin-3-yl]oxy}-1H-indol-2-yl)-4,5-dihydro-1,3-thiazol-5-yl]ethanol] | 147 to 148
7 | CCOc1cc(Oc2ccc(S(C)(=O)=O)nc2)cc2cc(C3=NCC(CC(=O)O)S3)[nH]c12 (stereo not drawn) [Example 96, [2-(7-Ethoxy-5-{[6-(methylsulfonyl)pyridin-3-yl]oxy}-1H-indol-2-yl)-4,5-dihydro-1,3-thiazol-5-yl]acetic acid] | 208 to 210
8 | CCOc1cc(Oc2ccc(S(C)(=O)=O)nc2)cc2cc(C3=NCC(CC(=O)NC)S3)[nH]c12 (stereo not drawn) [Example 97, 2-[2-(7-Ethoxy-5-{[6-(methylsulfonyl)pyridin-3-yl]oxy}-1H-indol-2-yl)-4,5-dihydro-1,3-thiazol-5-yl]-N-methylacetamide] | 233 to 235
9 | CCOc1cc(Oc2ccc(S(C)(=O)=O)nc2)cc2cc(C3=NCC(CC(N)=O)S3)[nH]c12 (stereo not drawn) [Example 100, 2-[2-(7-Ethoxy-5-{[6-(methylsulfonyl)pyridin-3-yl]oxy}-1H-indol-2-yl)-4,5-dihydro-1,3-thiazol-5-yl]acetamide] | 195 to 196
10 | COc1cc(Oc2ccc(S(C)(=O)=O)cc2)cc2cc(C3=NCC(CC(=O)O)S3)[nH]c12 (stereo not drawn) [Example 102, (2-{7-Methoxy-5-[4-(methylsulfonyl)phenoxy]-1H-indol-2-yl}-4,5-dihydro-1,3-thiazol-5-yl)acetic acid] | 144 to 145
11 | CNC(=O)CC1CN=C(c2cc3cc(Oc4ccc(S(C)(=O)=O)cc4)cc(OC)c3[nH]2)S1 (stereo not drawn) [Example 103, 2-(2-{7-Methoxy-5-[4-(methylsulfonyl)phenoxy]-1H-indol-2-yl}-4,5-dihydro-1,3-thiazol-5-yl)-N-methylacetamide] | 125 to 126
12 | COc1cc(Oc2ccc(S(C)(=O)=O)cc2)cc2cc(C3=NCC(CC(N)=O)S3)[nH]c12 (stereo not drawn) [Example 104, 2-(2-{7-Methoxy-5-[4-(methylsulfonyl)phenoxy]-1H-indol-2-yl}-4,5-dihydro-1,3-thiazol-5-yl)acetamide] | 169 to 170
